Measured values published in ChEMBL document CHEMBL1141985, “Carbonic anhydrase inhibitors. Inhibition of the human cytosolic isozyme VII with aromatic and heterocyclic sulfonamides” (Bioorg Med Chem Lett, 2005).

Each compound was assayed against Carbonic anhydrase 13 (Mus musculus, UniProt Q9D6N1).
Carbonic anhydrase 13, sequence (Q9D6N1 whole entry): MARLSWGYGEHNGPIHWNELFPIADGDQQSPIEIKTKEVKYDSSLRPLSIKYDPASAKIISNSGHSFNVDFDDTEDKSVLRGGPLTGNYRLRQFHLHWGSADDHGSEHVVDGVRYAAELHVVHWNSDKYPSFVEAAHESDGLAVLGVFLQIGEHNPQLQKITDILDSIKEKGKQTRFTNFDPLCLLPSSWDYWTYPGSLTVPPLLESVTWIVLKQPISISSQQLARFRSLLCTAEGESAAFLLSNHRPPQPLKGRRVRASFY
Description: Ki value against murine carbonic anhydrase XIII

Ki [nM]	Compound
2	Nc1ccc(S(=O)(=O)NCc2ccc(S(N)(=O)=O)cc2)cc1
1.9	Nc1ccc(S(=O)(=O)NCCc2ccc(S(N)(=O)=O)cc2)cc1

What follows are compounds tested against Carbonic anhydrase 1 (Homo sapiens, UniProt P00915).
Carbonic anhydrase 1, sequence (P00915 whole entry): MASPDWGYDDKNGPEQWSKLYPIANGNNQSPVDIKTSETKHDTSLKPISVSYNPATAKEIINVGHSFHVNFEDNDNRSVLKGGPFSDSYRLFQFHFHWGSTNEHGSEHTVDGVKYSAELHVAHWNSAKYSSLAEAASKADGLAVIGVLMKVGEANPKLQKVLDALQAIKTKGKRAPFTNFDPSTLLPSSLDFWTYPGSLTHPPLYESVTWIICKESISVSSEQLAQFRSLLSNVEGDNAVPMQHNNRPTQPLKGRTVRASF
Description: Ki value against human carbonic anhydrase I

Compound	Ki [nM]
NS(=O)(=O)c1nnc(-c2ccccc2Cl)s1	690
NNc1ccc(S(N)(=O)=O)cc1	28000

Each compound was assayed against Carbonic anhydrase 7 (Homo sapiens, UniProt P43166).
Carbonic anhydrase 7, sequence (P43166 whole entry): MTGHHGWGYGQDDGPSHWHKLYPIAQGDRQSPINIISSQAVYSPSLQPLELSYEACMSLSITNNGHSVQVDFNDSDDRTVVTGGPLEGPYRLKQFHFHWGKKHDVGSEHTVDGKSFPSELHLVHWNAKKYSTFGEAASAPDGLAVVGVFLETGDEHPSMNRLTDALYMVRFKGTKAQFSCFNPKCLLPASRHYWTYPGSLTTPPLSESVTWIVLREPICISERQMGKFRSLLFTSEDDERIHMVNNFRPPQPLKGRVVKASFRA
Description: Ki value against human carbonic anhydrase VII

Compound	Ki [nM]
NS(=O)(=O)c1nnc(-c2ccccc2Cl)s1	5.4
NNc1ccc(S(N)(=O)=O)cc1	89
Nc1ccc(S(N)(=O)=O)cc1 [SULFANILAMIDE]	70
Nc1ccccc1S(N)(=O)=O	45
Nc1ccc(S(N)(=O)=O)cc1Br	61
Nc1nnc(S(N)(=O)=O)s1	5.2
Nc1ccc(S(=O)(=O)NCc2ccc(S(N)(=O)=O)cc2)cc1	5.6
Nc1ccc(S(N)(=O)=O)cc1I	150
Nc1ccc(S(=O)(=O)NC2NN=C(S(N)(=O)=O)S2)cc1 (stereo not given)	7
Nc1nccc(Nc2ccc(S(N)(=O)=O)cc2)n1	6.8
Cn1nc(S(N)(=O)=O)sc1=N	4.3
NS(=O)(=O)c1nc2ccccc2s1	4
NNc1ccccc1S(N)(=O)=O	68
Nc1ccc(S(=O)(=O)NCCc2ccc(S(N)(=O)=O)cc2)cc1	6.5

Results, then the compound that gave them:

Ki [nM]	Compound
60	NS(=O)(=O)c1ccc(CO)cc1
66	NS(=O)(=O)c1ccc(CCO)cc1
75	Nc1ccc(S(N)(=O)=O)cc1F
88	Cc1ccc(S(N)(=O)=O)cc1 [P-TOLUENESULFONAMIDE]
120	Nc1ccc(S(N)(=O)=O)cc1Cl
75	NCc1ccc(S(N)(=O)=O)cc1 [MAFENIDE]
52	NS(=O)(=O)c1ccc(C(=O)O)cc1 [CARZENIDE]
